Several values for one entry are separate records, joined by “and”; a condition that tells them apart may be missing. Equal entries are not always repeated. Where two headings read alike, the source gives them in different places.
Columns and labels:
[1] = Stability in hepatomicrosome with NADPH (LC-MS/MS); format: in vitro ADME, human; details: for % Remaining: human hepatomicrosome 0.5 mg/ml, NADPH 2 mM, 37° C., Sample 1, Sample 2
Description: The compounds, hepatomicrosome and reduced coenzyme NADPH were mixed together. Besides, a final concentration of the hepatomicrosome was 0.5 mg/ml, and human, male and mixed types of the hepatomicrosome were purchased. A final concentration of the NADPH was 2 mM. Next, the preceding mixtures were incubated in buffer (100 mM KH2PO4—K2HPO4) at 37° C. for 0, 5, 15, 30, 45, and 60 minutes, respectively. At the appointed incubation time, the reaction was terminated by the addition of an internal standard solution. Finally, the samples were centrifuged and the supernatant was taken for detection by LC-MS/MS.
Through mass spectrometry analysis, a concentration of the compounds in each sample was expressed by a peak-area ratio (a ratio of the peak-area of the compound to a peak-area of the internal standard). Then, each remaining percentage of the compounds (% Remaining) at each appointed incubation time was calculated with a reference that 0 minute at each concentration of the compounds. In logarithm of the remaining percentage was fitted linearly with the appointed incubation times, and a half-life and an intrinsic clearance were calculated according to the following formulas.
The remaining percentage (% Remaining)=(a peak area ratio at a certain appointed time (PARappointed time)/a peak area ratio at 0 minute (PAR0-mm)×100 (PAR: peak area ratio)
The elimination rate constant (k)=a negative of a slope (-gradient)
In vitro clearance (CLint, in vitro) (ml/min/mg)=k/c (c: a concentration of hepatomicrosome in the incubation system)

[2] = test system: H460 non-small cell lung cancer; details: cited from earlier work
[3] = Pharmacokinetics after single intravenous drip infusion, plasma LC-MS/MS; format: in vivo, Philippine macaques; details: individual animals 101, 102, 103; for Plasma-drug concentration: AST-3424 intravenous drip infusion 0.58 mg/kg
Description: AST-3424 and AST-3424-D6 (i.e. the compound of formula I) were administered to Philippine macaques by intravenous drip infusion, and blood samples were collected at different appointed times. LC-MS/MS was used to determine concentrations of the test substances in plasma of the Philippine macaques after administration, and relevant pharmacokinetic parameters were calculated.
Preparation method: 0.447 ml of AST-3424 (0.2 mg/ml) and 0.481 ml of AST-3424-D6 (0.2 mg/ml) were added into 104.272 ml of the dissolvent, respectively, and mixed for 5 minutes to obtain colorless and clarified solutions with pH 7.0.
The four male Philippine macaques were purchased from Guangxi Xiongsen Primate Development Experiment Co., Ltd. All Philippine macaques were healthy with qualified medical examination and no abnormality. Three of animals were used for the experiment, and one of them was used to prepare blank plasma.
About 0.8 ml of blood samples were collected through femoral vein and anticoagulated with heparin sodium. Appointed times of blood collection were before administration, 0.17, 0.25, 0.5, 0.75, 1, 2, and 4 hours after administration.
The blood samples were placed on ice after collection. Next, plasma samples were separated by centrifugation, and centrifugation conditions were 3500 rpm for 10 minutes at 4° C. Then, the collected plasma samples were stored at −80° C. until analysis. The plasma samples were analyzed by LC-MS/MS by an analysis department of an experimental institution. Besides, Lower limit of quantifications (LLOQ) of AST-3424 and AST-3424-D6 detection were 1 ng/ml. The accuracy of analysis results of an accompanying standard curve and a quality control samples all met the relevant requirements of biological analysis (the accuracy of the quality control samples exceeding 66.7% was between 85˜115%) in a process of the sample detection.
According to average blood concentration data of each group at each appointed time, the pharmacokinetic parameters of the compounds were respectively computed by a pharmacokinetic computing software, a non-compartmental model. In addition, the pharmacokinetic parameters were AUC0-t, AUC0-∞, MRT0-∞, Cmax, Tmax, t1/2, etc. In the case of the concentrations of the samples whose concentration being lower than a lower limit of quantification, the following schemes were used to compute the pharmacokinetic parameters. The samples sampled before reaching Cmax shall be computed as zero value, while the samples sampled after reaching Cmax shall be computed as non-quantifiable (marked as “BLQ”).
After a single intravenous infusion of the compounds AST-3424 and AST-3424-D6 was administered to the Philippine macaques, the whole blood samples of the corresponding animals were collected at the appointed times. Next, the whole blood samples were processed and biologically analyzed to obtain concentrations of the compounds in the plasma at the different appointed times. Results of the assay were listed in Table 14 below, and corresponding means of the plasma-drug concentration-time curves are shown in FIG. 3.
According to the plasma-drug concentration data of each drug group, the pharmacokinetic parameters of each compound group were computed using the non-compartmental model of the pharmacokinetic computing software. The pharmacokinetic

[4] = AST-3424 0.58 mg/kg single intravenous infusion, plasma, 0.58 mg/kg

Stability parameter k (elimination rate constant) ([1]; human hepatomicrosome): 0.0606 min⁻¹
% Remaining ([1]; 0 minutes): 101.36% and 98.64%
% Remaining ([1]; 5 minutes): 77.67% and 80.00%
% Remaining ([1]; 15 minutes): 45.83% and 47.38%
% Remaining ([1]; 30 minutes): 17.86% and 16.93%
% Remaining ([1]; 45 minutes): 6.52% and 6.95%
% Remaining ([1]; 60 minutes): 2.64% and 2.68%
% Remaining, Average ([1]; human hepatomicrosome, 0 minutes): 100.00%
% Remaining, Average ([1]; human hepatomicrosome, 5 minutes): 78.83%
% Remaining, Average ([1]; human hepatomicrosome, 15 minutes): 46.60%
% Remaining, Average ([1]; human hepatomicrosome, 30 minutes): 17.40%
% Remaining, Average ([1]; human hepatomicrosome, 45 minutes): 6.74%
% Remaining, Average ([1]; human hepatomicrosome, 60 minutes): 2.66%
half-life ([1]; male, liver microsomes (hepatomicrosome), human hepatomicrosome, read-out: Stability parameter (t1/2)): 11.4 min
Compound: C[C@H](OP(=O)(N1CC1)N1CC1)c1ccc([N+](=O)[O-])c(Oc2cccc(C(=O)N(C)C)c2)c1 [AST-3424, (S)-1-(3-(3-N,N-Dimethylaminocarbonyl)phenoxy-4-nitrophenyl)-1-ethyl-N,N′-bis(ethylene) phosphoramidate]
IC50 ([2]; + TH3021 (inhibitor of AKR1C3), (Reference)): 141 nM
IC50 ([2]; without TH3021, (Reference)): < 4.57 nM
AUC(0−t) [3, 4]: 430.42 ng·h/mL and 474.63 ng·h/mL
AUC(0−∞) [3, 4]: 430.76 ng·h/mL and 475.04 ng·h/mL
Cl [3, 4]: 22.4412 mL/min/kg and 20.3492 mL/min/kg
Cmax [3, 4]: 677.40 ng/mL and 800.80 ng/mL
MRT(0−t) [3, 4]: 11.4 min
MRT(0−∞) [3, 4]: 11.4 min and 10.8 min
T1/2 [3, 4]: 10.8 min and 11.4 min
Tmax [3, 4]: 15 min and 30 min and 10.2 min
Vss [3, 4]: 0.26123 L/kg and 0.21373 L/kg
Vz [3, 4]: 0.35358 L/kg and 0.33343 L/kg
Plasma-drug concentration ([3]; 0.17 hr): 800.80 ng/mL and 685.96 ng/mL
Plasma-drug concentration ([3]; 0.25 hr): 729.91 ng/mL and 695.61 ng/mL
Plasma-drug concentration ([3]; 0.5 hr): 729.08 ng/mL and 679.80 ng/mL
Plasma-drug concentration ([3]; 0.75 hr): 157.68 ng/mL and 118.92 ng/mL
Plasma-drug concentration ([3]; 1 hr): 50.63 ng/mL and 31.86 ng/mL
Plasma-drug concentration ([3]; 2 hr, LLOQ 1 ng/ml): 1.51 ng/ ml and BLQ
